The source of these data is patent US20240307334A1 (Lieber Institute, Inc., priority 2023, published 2024).

Molecules are shown by their SMILES. Counter-ions that a name gives are not always drawn.

The test system of data set [1] is Tcf4+/tr mouse model of PTHS. The experiment in a line: In vivo immunohistochemical (IHC) quantification of OPCs and OLs after two-week intraperitoneal dosing. An excerpt: The Tcf4^+/tr mouse model of PTHS is heterozygous for an allele encoding deletion of the DNA-binding domain of TCF4 (B6; 129-TCF4tmlZhu/J, stock number 013598, Jackson Laboratory). This mouse colony was backcrossed for at least six generations, maintained by The Lieber Institute for Brain Developments Animal Facility on a 12-h light/dark cycle and fed ad libitum. Tcf4^+/tr mouse samples were matched with samples from Tcf4^+/+ littermates, and sex was randomly selected in each genotype and age group. All procedures were performed in accordance with the National Institutes of Health Guide for the Care and Use of Laboratory Animals and approved by the Johns Hopkins University School of Medicine's Institutional Animal Care and Use Committee.
(§1) The final pH was approximately 5.
(§2) Mice were dosed at 1.0 mg/kg/day for 14 days with either Sob-AM2 or NMP/Kolliphor solution (vehicle).
(§3) Cells were rinsed 1× with PBS and then fixed with 4% paraformaldehyde (PFA) for 5 minutes, following fixation cells were rinsed 3× with PBS. Similarly, mice were perfused with 20-30 mLs of 1× PBS, followed by 20-30 mLs of 4% PFA. Tissue was extracted and post fixed in 4% PFA on a rocker at 4° C. overnight. For immunostaining cells were rinsed 3× with 0.04% Tween 20 (Sigma 655204) while tissue (P42 mouse) was rinsed 3× with 0.4% Triton (Sigma X100). Cells were blocked in respective serum (10%) for 2 hours at room temperature on an orbital shaker. Following block, primary antibody was added in 2% serum in 0.04% Tween 20 for cells and 0.4% Triton-X 100 for tissue, and incubated overnight at 4° C. Following overnight incubation cells were rinsed 3× with 0.04% Tween 20 or 0.4% Triton respectively before adding the secondary antibody to incubate at room temperature for 2 hours. After incubation, cells were rinsed 3× in respective buffers and counterstained with DAPI (Invitrogen™, D1306). Visualization was carried out on a ZEISS LSM 700 Confocal. Imaging and quantification were performed blind to genotypes and conditions/treatments.
Next, we assessed the effectiveness of Sob-AM2 in vivo by dosing Tcf4^+/tr mice and Tcf4^+/+ littermates intraperitoneally with either Sob-AM2 (1 mg/kg) or vehicle for two weeks followed by immunohistochemical (IHC) quantification (FIG. 7D).

In data set [2] the test system is Tcf4+/tr mouse model of PTHS. The experiment in a line: Novel open field assay (locomotor activity and anxiety). The note with it: Tcf4+/tr mice. In kind it is in vivo. As for the experimental part:
as §1, §2
Locomotor activity and anxiety was assessed using Noldus PhenoTyper cages as previously shown. Mickelsen et al., 2019. Each cage is outfitted with two sets of cameras; one on the ceiling that faces the platform (35 cm×35 cm), and another pointed at the side of the cage. Mice were acclimated to the experimentation room in their home cages for at least 1 h. During acclimation, the Noldus EthoVision software was set-up to track movement for 30 total minutes. After acclimation, mice were placed in the center of the open field, opaque Plexiglas was placed on all four sides of the cage to obscure any visual cues, and the trial was started in the EthoVision software. After 30 min, the trial ended, and mice were placed back into their home cages. Noldus EthoVision software was used to determine distance traveled, time spent in center, and frequency of going to center.
Next we treated Tcf4^+/tr mice and Tcf4^+/+ littermates with Sob-AM2 for 14 days and then assayed their behavior in the open field (FIG. 8A).

For data set [3] the following is noted: following systemic administration, prodrug compared with sobetirome; cited from earlier work.
In data set [4] the test system is primary OPC/OL cultures from Tcf4+/tr and Tcf4+/+ mice. The experiment in a line: Primary OPC and OL cultures: immunocytochemistry quantification of OPCs and OLs normalized to Olig2. The class given is cell-based, mouse. The note with it: for OPCs (PDGFRα+/Olig2+) / mature OLs (MBP+/Olig2+): Tcf4+/tr cells. As for the experimental part:
Mice were dosed at 1.0 mg/kg/day for 14 days with either Sob-AM2 or NMP/Kolliphor solution (vehicle). Initial dosing was performed at P28 up until P42 when animals were then used for subsequent experiments.
Primary OPC and OLs were obtained following a previous protocol^19. In brief, P2-P3 pups were dissociated and plated at a density of 10.0×10^3 cells/cm^2 in a 96 well ibidi plate coated in 0.1% polyethyleneimine (PEI) and 0.5-μg/mL laminin. Cells were plated and maintained in OPC proliferation media consisting of 1× StemPro Neural supplement (Thermo Fisher Scientific, A1050801), 1× Anti-Anti (Thermo Fisher Scientific, 15240-096), 10 ng/mL of Human FGF-basic (Peprotech, 100-18B) and 30 ng/mL rhPDGF-AA (R&D systems, 221-AA), with a half media exchange on DIV4.
as §3
Mei et al., 2014; Yoshida et al., 2020. Following a previously established protocol, Yoshida et al., 2020, we dissociated and plated OPCs from both Tcf4^+/+ and Tcf4^+/tr mice onto 96-well plates in OPC proliferation media. […] We performed blinded quantification of OPCs and OLs using antibodies against PDGFRα and MBP, respectively, and normalized our counts with the pan-OL marker OLIG2 (FIG. 1B).
Hartley et al., 2019. We performed blinded quantification of OPCs and OLs using antibodies against PDGFRα and MBP, respectively, and normalized our counts with the pan-OL marker OLIG2 (FIG. 7A).

Data set [5] deals with Tcf4+/tr mouse model of PTHS. Description: Transmission electron microscopy (TEM) of myelination in the corpus callosum. The class given is in vivo. As for the experimental part: 5% DMA (dimethylacetamide, Sigma 271012) was added up to the total volume needed. […] The mixture was shaken vigorously (vortex) and was ready for administration for intraperitoneal (1P) dosing at 10 mL/kg. The final pH was approximately 5. […] Initial dosing was performed at P28 up until P42 when animals were then used for subsequent experiments.
After perfusion with a 0.1 M sodium cacodylate buffer, pH 7.2, containing 2% paraformaldehyde (freshly prepared from EM grade aqueous solution), 2% glutaraldehyde, and 3 mM MgCl2, p42 mouse brains were kept overnight in fixative. The next day brains were dissected in fixative and rinsed with sodium cacodylate buffer. Samples were then post-fixed in reduced 2% osmium tetroxide, 1.6% potassium ferrocyanide in buffer (2 hr) on ice in the dark. Following a dH2O rinse, samples were stained with 2% aqueous uranyl acetate (0.22 μm filtered, 1 hr, dark), dehydrated in a graded series of ethanol, propylene oxide and embedded in Eponate 12 (Ted Pella) resin. Samples were polymerized at 60° C. overnight. Thin sections, 60 to 90 nm, were cut with a diamond knife on the Reichert-Jung Ultracut E ultramicrotome and picked up with copper slot (1×2 mm) grids. Grids were stained with 2% uranyl acetate and observed with a Phillips CM120 TEM at 80 kV. Images were captured with an AMT XR80 CCD camera. Preparation of samples, TEM imaging, and quantification was performed blind to genotypes.
Blinded to genotype and condition, TEM images were taken on the CC directly above the hippocampus from anatomically equivalent tissue sections in littermates. […] To further validate this, we quantified BCAS1+ cells (pre-myelinating OLs).

The test system of the next data set is multiple sclerosis. The note with it: phase 2 clinical trial for multiple sclerosis; cited from earlier work.
Where [6] appears, read: Tcf4+/tr mice, Sob-AM2 1 mg/kg intraperitoneally for two weeks.
The mark [7] stands for this setting: Sob-AM2 for 14 days, compared to vehicle-treated Tcf4+/tr littermates.
[8] abbreviates: clemastine (1 μM) DIV7 to DIV14, compared to vehicle treated Tcf4+/tr cells.
[9] abbreviates: Tcf4+/tr mice, clemastine 10 mg/kg intraperitoneally for two weeks (P28-P42).
The mark [10] stands for this setting: clemastine for 14 days, 30 min open field.
Where [11] appears, read: sobetirome (1 μM) 7 days to DIV14, compared to vehicle-treated Tcf4+/tr cells.

As to `CNC(=O)COc1cc(C)c(Cc2ccc(O)c(C(C)C)c2)c(C)c1` [Sob-AM2], in data set [1] (setting [6]), the “OPCs (PDGFRα+/Olig2+)” value is recorded as “significant decrease in OPCs” and the “mature OLs (CC1+/Olig2+)” value is recorded as “significant increase in mature OLs”. Moreover, in data set [2] (setting [7]), the “frequency of entering the center of the open field” value is “reduction in the frequency of entering the center of the open field” and the total distance traveled result is “significant reduction in total distance traveled”. Further, in data set [3], the “crossing of the blood brain barrier and distribution to the central nervous system” value was “better able to cross the blood brain barrier”.
For the compound `CN1CCC[C@@H]1CCO[C@](C)(c1ccccc1)c1ccc(Cl)cc1` [clemastine, clemastine fumarate], in data set [4] (setting [8]), the “OPCs (PDGFRα+/Olig2+)” value was “significant reduction in OPCs” and the “mature OLs (MBP+/Olig2+)” value was “an increase in OLs”. Also, in data set [4] (all conditions, in vitro assay), the “total number of Olig2 positive cells, in vitro” value is recorded as “no effect on the total number of Olig2 positive cells”. In data set [1] (Tcf4+/tr mice, 14 days clemastine), the “number of BCAS1+ cells (pre-myelinating OLs)” value is “significantly increased the number of BCAS1+ cells”. Also, in data set [1] (setting [9]), the “OPCs (PDGFRα+/Olig2+)” value is “significant decrease in OPCs” and the “mature OLs (CC1+/Olig2+)” value is listed as “significant increase in mature OLs”. Further, the “total number of Olig2 positive cells, in vivo” value in data set [1] (all conditions, in vivo assay) is on record as “no effect on the total number of Olig2 positive cells”. Also, the “density of uncompacted myelin” value in data set [5] (Tcf4+/tr mice, clemastine vs vehicle-treated Tcf4+/tr mice) is listed as “significantly increased the density of uncompacted myelin”. The “proportion of uncompacted myelin” value in data set [5] (Tcf4+/tr mice, relative to vehicle-treated Tcf4+/+ mice) is reported as “normalized the proportion of uncompacted myelin”. Also, the total myelin density entry in data set [5] (Tcf4+/tr mice, two week clemastine treatment) is reported as “unable to restore Tcf4^+/+ levels of total myelin density”. The “proportion of compact myelin per image” value in data set [5] (clemastine Tcf4+/+ and clemastine Tcf4+/tr) is reported as “less compaction overall”. Further, in data set [2] (setting [10]), the “frequency of entering the center of the field” value is on record as “reduction in the frequency of entering the center of the field” and the total distance traveled entry is “significant reduction in total distance traveled”. Also, the remyelination in patients entry in the data set on multiple sclerosis is “showed remyelination capabilities”.
As for `Cc1cc(OCC(=O)O)cc(C)c1Cc1ccc(O)c(C(C)C)c1` [sobetirome], in data set [4] (setting [11]), the “OPCs (PDGFRα+/Olig2+)” value is “significant reduction in OPCs” and the “mature OLs (MBP+/Olig2+)” value is “an increase in OLs”.
